From US20100249175A1, “Dicationic compounds which selectively recognize G-quadruplex DNA” (priority 2005, published 2010)
Where a name gives a salt, the structure may show the parent alone. Read-outs that look alike come from different tables or passages of the source.

What was measured:
[1] = test system: telomeric G-quadruplex DNA sequence d[AG3(T2AG3)3] (SEQ ID NO: 1); test: CD titration of compounds into human telomeric G-quadruplex DNA (induced CD); assay type: binding; parameters: key to Induced CD (no exciton): ++: Relative strength of the induced CD is indicated by the number of (+) marks; +++: Relative strength of the induced CD is indicated by the number of (+) marks; ++++: Relative strength of the induced CD is indicated by the number of (+) marks; conditions: for Induced CD (no exciton) / Induced CD (exciton): G-Quadruplex Affinity
Text: The oligonucleotides d[AG3(T2AG3)3] (SEQ ID NO: 1), d[AG3TG4AG3TG4A] (SEQ ID NO: 2), d[G4(T4G4)3] (SEQ ID NO: 3), d[(T2G4)4] (SEQ ID NO: 4), d[(GC)7] (SEQ ID NO: 5), d[[…]] (SEQ ID NO: 6), d[G2T2G2TGTG2T2G2] (SEQ ID NO: 7), d[[…]] (SEQ ID NO: 8), d[[…]] (SEQ ID NO: 9), d[[…]] (SEQ ID NO: 10), d[[…]] (SEQ ID NO: 11), d[TTAGGGT] (SEQ ID NO: 12), and d[TGGGGT] (SEQ ID NO: 13) were purchased with HPLC purification from Midland Certified Reagent Company (The Midland Certified Reagent Company, Inc., Midland, Tex., USA). The concentration of each DNA sample was determined spectrophotometrically at 260 nm using the nearest neighbor extinction coefficient.
Stock solutions of individual dicationic polyaryl compounds were prepared in double distilled water and diluted to working concentrations immediately before use with buffer. All measurements were performed at 20° C. in a 10 mM HEPES buffer (pH 7.4) containing 3 mM EDTA and 50 mM KCl, NaCl, or LiCl. Absorbance spectra were obtained on a Varian Cary 300 BIO UV-visible spectrophotometer (Varian, Inc., Palo Alto, Calif., United States of America) in a quartz cell with a 1 cm pathlength. CD spectra were recorded using a Jasco J-810 spectrapolarimeter (Jasco, Inc., Easton, Md., United States of America) in a 1-cm cell using an instrument scanning speed of 50 nm/min with a response time of 1 s. The spectra were averaged over four scans. A buffer baseline scan was collected in the same cuvette and subtracted from the average scan for each sample. Appropriate amounts of dicationic compound stock solution or DNA were added sequentially to increase the molar ratio.
When an achiral ligand binds tightly to a chiral host, such as DNA, a CD signal is induced in the wavelength region corresponding to the absorbance of the ligand. […] An additional negative band centered at 395 nm overlaps with the higher energy exciton band. […] Restriction of the rotational and translational freedom of the two molecules of the dimer relative to each other will cause an increase in the rotational strength of the induced CD band, resulting in a large ellipticity. See Allenmark, S., Chirality, 15, 409-422 (2003).
Some compounds appeared to bind to the telomeric G-quadruplex DNA sequence d[AG3(T2AG3)3] […] Relative strength of the induced CD is indicated by the number of (+) marks.

[2] = test system: Plasmodium falciparum (P. f.); test: In vitro antiprotozoal activity against P. f.; assay type: cell-based; conditions: read-out: P.f. (IC50)
Description: (§1) In vitro antiprotozoal activities were measured following established protocols. […] E., et al., Bioorg.

[3] = test system: Trypanosoma brucei rhodesiense (T. b. r.); test: In vitro antiprotozoal activity against T. b. r.; assay type: cell-based
Description: as §1

[4] = test system: STIB 900 strain of Trypanosoma brucei rhodesiense (T. b. r.); test: In vivo T. b. r. STIB 900 mouse model; conditions: for In Vivo T.b.r. cures: mice cured / mice infected, days 3-6 post-infection; for In Vivo T.b.r. survival time: observation up to day 60
Description: Groups of four mice were infected intraperitoneally with 2×10^5 bloodstream forms of T. b. r. STIB 900 which originates from a patient in Tanzania. On days 3, 4, 5, and 6 post-infection the experimental groups were treated with the drugs either by the intraperitoneal or for prodrugs by the oral route. Usually the highest tolerated dose was used which was determined in a pretoxicological experiment. Parasitemia of the mice was checked daily up to day 14 post-infection and thereafter 2 times per week up to day 60. One group of mice was not treated and acted as control. For relapsing mice, the day of death was recorded and the survival time determined.

SMILES | Induced CD (no exciton) [1] | IC50 ([2]; in vitro) [nM] | IC50 [3] [nM] | melting point [°C] | other results
c1ccc2[nH]c(-c3ccc(-c4ccc(C5=NCCN5)cc4)o3)nc2c1 [Compound 50] | +++ |  |  |  | 
c1cc(-c2ccc(-c3ccc(C4=NCCN4)o3)o2)oc1C1=NCCN1 [Compound 49] |  | 93 | 793 |  | exciton splitting in CD spectra (in words) [1]: induced exciton splitting; Induced CD (exciton) [1]: ++
N=C(N)c1ccc(-c2ccc(-c3ccc(C(=N)N)o3)cc2)cc1 [Compound 51] |  | 1 | 5 |  | exciton splitting in CD spectra (in words) [1]: induced exciton splitting; Induced CD (exciton) [1]: +
N=C(N)c1ccc(-c2ccc(-c3ccc(-c4ccc(C(=N)N)cc4)[se]3)[se]2)cc1 |  |  |  | > 300 | 
N=C(N)c1ccc(-c2ccc(-c3ccc(-c4ccc(C(=N)N)cn4)o3)o2)nc1 [Compound 22, 5,5′-Bis-(5-amidino-2-pyridyl)-2,2′-bifuran] |  |  |  | > 300 | 
COc1ccc(-c2nc3ccc(-c4nc5ccc(C(=N)N)cc5[nH]4)cc3[nH]2)cc1 [Compound 46] | ++++ | 29 | 16 |  | In Vivo T.b.r. cures ([4]; 5 mg/kg ip): 0/4; In Vivo T.b.r. survival time ([4]; 5 mg/kg ip): 14.75 days
N=C(N)c1ccc(-c2ccc(-c3ccc(C(=N)N)cc3)o2)cc1 [furamidine, reference compound] |  |  |  |  | In Vivo T.b.r. survival time ([4]; 5 mg/kg ip): 46.5 days
N=C(N)c1ccnc(-c2ccc(-c3ccc(-c4cc(C(=N)N)ccn4)s3)s2)c1 [Compound 26b, 5,5′-Bis-(4-amidino-2-pyridyl)-2,2′-bithiophene] |  |  |  | > 300 | 
c1cc(-c2ccc(-c3nc4ccc(C5=NCCN5)cc4[nH]3)o2)ccc1C1=NCCN1 [Compound 48] | ++++ |  |  |  | 
N=C(N)c1ccc2nc(-c3ccc(-c4ccc(C(=N)N)c(F)c4)o3)[nH]c2c1 [Compound 52] | +++ | 31 | 52.5 |  | In Vivo T.b.r. cures ([4]; 20 mg/kg ip): 2/4; In Vivo T.b.r. survival time ([4]; 20 mg/kg ip): > 52 days
N=C(N)c1ccc(-c2ccc(-c3ccc(-c4ccc(C(=N)N)cc4)s3)s2)cc1 [Compound 26a, 5,5′-Bis-(4-amidinophenyl)-2,2′-bithiophene] |  |  |  | > 300 | 
N=C(N)c1ccc(-c2ccc(-c3ccc(-c4ccc(C(=N)N)cc4)o3)o2)cc1 [Compound 17, 5,5′-bis-(4-Amidinophenyl)-2,2′-bifuran hydrochloride salt] |  |  |  |  | IC50 [2]: 20 nM; In Vivo T.b.r. cures ([4]; 10 mg/kg ip): 0/4; In Vivo T.b.r. survival time ([4]; 10 mg/kg ip): 22 days; exciton splitting in CD spectra (in words) [1]: induced exciton splitting; Induced CD (exciton) [1]: ++++
CC1=CC(C(=N)N)=CN2C=C(c3ccc(-c4ccc(C(=N)N)cc4)o3)NC12 (centres unmarked) [Compound 53] | +++ | 88 | 9 |  | In Vivo T.b.r. cures ([4]; 5 mg/kg ip): 4/4; In Vivo T.b.r. survival time ([4]; 5 mg/kg ip): > 60 days
N=C(N)c1ccc2nc(-c3ccc(-c4ccc(C(=N)N)o4)o3)[nH]c2c1 [Compound 45] | ++ | 92 | 102 |  | 
N=C(N)c1ccc(-c2ccc(-c3nc4ccc(C(=N)N)cc4[nH]3)o2)cc1 [Compound 47] | +++ | 96 | 122 |  | In Vivo T.b.r. cures ([4]; 20 mg/kg ip): 1/4; In Vivo T.b.r. survival time ([4]; 20 mg/kg ip): > 27.75 days
N=C(N)c1ccnc(-c2ccc(-c3ccc(-c4cc(C(=N)N)ccn4)[se]3)[se]2)c1 |  |  |  | > 300 | 
